From paper PMC10220285, “Development of an assay pipeline for the discovery of novel small molecule inhibitors of human glutathione peroxidases GPX1 and GPX4” (Redox Biology, 2023)
Counter-ions that a name gives are not always drawn.

Experiments:
GPX1 [1] = molecular target: T1, GPX1 (Homo sapiens, UniProt P07203); experiment: GR-coupled GPX1 activity assay (NADPH fluorescence, CHP substrate); type: biochemical; conditions: for IC50: IC50 of resulting CRC, Table 2, read-out: IC50 GPx1; for inhibition of GPX1: Fig. 9 pan-selenoprotein inhibitors
T1 construct: made in house; host or cells: E. coli
T1 sequence (P07203 1-203): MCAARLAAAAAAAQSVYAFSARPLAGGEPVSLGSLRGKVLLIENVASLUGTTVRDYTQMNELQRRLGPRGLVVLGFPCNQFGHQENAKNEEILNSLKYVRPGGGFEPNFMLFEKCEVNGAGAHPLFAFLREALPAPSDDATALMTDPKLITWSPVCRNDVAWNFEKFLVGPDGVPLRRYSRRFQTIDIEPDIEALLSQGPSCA
Method: (§1) The compound plates were prepared as described previously. Purified recombinant human GPX1, GPX2, GPX4, GR, and TXNRD1 were produced and purified as previously reported [[48], [49], [50]]. As production of GPX2 was not optimized at the onset of screening, only GPX1 and GPX4 underwent library screening, and GPX2 was used as a follow-up.
(§2) Follow-up and orthogonal assays were run in quadruplicate unless otherwise stated. Assay schemes are illustrated in Fig. 1.
(§3) To measure GPX activity, assays were performed in 1536-well format in black medium-binding solid-bottom plates (Greiner). These assay conditions were optimized for high-throughput screening from an assay first described by Paglia and Valentine. GPX activity is measured indirectly by coupling the reaction with GR whereby GPX reduces hydroperoxide by oxidizing two GSH to GSSG and the oxidized glutathione is recycled to its reduced state by GR and NADPH (Fig. 1B). The rate of consumption of NADPH is directly proportional to the activity of GPX and can be measured by the decrease in fluorescence at 340 nm/450 nm.
(§4) First, 3 μL of enzyme in TES assay buffer (50 mM Tris-HCl, 2 mM EDTA (pH 7.5), 150 mM NaCl with enzyme [10 nM GPX1, 200 nM GPX4 ] and BSA [0.01%]) was added to columns 3–48 of 1536-well plates using a BioRAPTR Flying Reagent Dispenser (Let's Go Robotics (LGR), Carlsbad, CA). A no-enzyme control (0.01% BSA in TES assay buffer) was added to columns 1–2. Compounds (25 nL, library and DMSO controls) were added to each well with a pin tool (Kalypsys), and the plates were incubated for 30 min at room temperature before 1 μL of master mix (100 nM GR, 1 mM GSH, 0.5 mM NADPH in TES buffer) was added. 1 μL of cumene hydroperoxide (CHP) ([0.5 mM] in 50% EtOH) was then added within 5 min to initiate the reaction. Fluorescence at 340/450 nm was measured using a ViewLux multimodal detector (PerkinElmer, Waltham, MA) at initial t = 0 and endpoint t = 15 min (GPX1) or t = 20 min (GPX4).
(§5) Follow-up confirmation assays were also run in 96-well format using medium binding clear 96-well SpectraPlate microplates (PerkinElmer) and NADPH absorbance at 340 nm was measured every 30 s for 30 min using an Infinite® M Nano (Tecan).
(§6) Percent activity was determined by first calculating delta RFU (decrease in fluorescence between t = 0 and t = 20/30 min in primary GPX, GR counter-screen, and TXNRD1 assays, or increase in fluorescence between t = 0 and t = 20 min in the Monobromobimane GPX endpoint assay), and normalizing enzyme activity using median delta RFU values for DMSO-treated enzyme control, and DMSO-treated no-enzyme controls.
(§7) Compound inhibitory activity in the qHTS assays was determined by plotting dose-response data for each sample and fitting with a four-parameter logistic fit to assess IC50 values, efficacy (maximal response), and AUC (area under the curve), as previously described. Hits were classified by the quality of the concentration-response curves (CRC). Curve classes −1.1 and −1.2 being the highest-confidence actives with complete CRCs and classes −2.1 and −2.2 being lower-confidence actives with incomplete CRCs.

human GPX2 = molecular target: T2, human GPX2 (Homo sapiens, UniProt P18283); experiment: GPX2 activity assay (follow-up isoform specificity); type: biochemical; conditions: for IC50: IC50 of resulting CRC, Table 2; for inhibition of GPX2: Fig. 9 pan-selenoprotein inhibitors
T2 construct: made in house
T2 sequence (P18283 1-190): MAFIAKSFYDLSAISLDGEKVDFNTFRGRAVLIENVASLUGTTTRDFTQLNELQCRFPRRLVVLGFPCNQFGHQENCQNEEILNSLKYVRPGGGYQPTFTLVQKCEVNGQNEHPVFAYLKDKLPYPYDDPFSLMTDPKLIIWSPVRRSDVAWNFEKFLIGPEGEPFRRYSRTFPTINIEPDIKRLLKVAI
Method: as §1, §2
Previous work has shown similarities in the substrate specificities of GPX1 and GPX2, and a more unique substrate profile of GPX4 [8].
The GPX2 isoform of human selenoprotein GPXs is found in epithelial cells and has similar substrate specificity with GPX1, but not as much with GPX4 [8]. Additionally, GPX1 and GPX2 both form homotetramers and share similarities in structural homology, although GPX2 has a much slower turnover rate.

GPX1 [2] = molecular target: T1, GPX1; experiment: nanoDSF thermal stabilization, GPX1; type: binding; conditions: for GSH Binding (ΔTm) GPx1; shift in nanoDSF melting temperature / Tm GPX1 (nanoDSF): first or only inflection point; for thermal stabilization of GPX1: nanoDSF
Method: Thermal stabilization of enzyme ± DMSO or ± compound was carried out in a Prometheus NT.48 instrument (NanoTemper Technologies) with an excitation wavelength of 280 nm. Intrinsic fluorescence at 330 nm and 350 nm was monitored while heating. Capillaries were filled with ∼10 μL of a solution of GPX1/4 (1 mg/mL), ± small molecule (100 μM) or DMSO, in TES buffer and placed into the instrument. The capillaries were subjected to a temperature range from 30 to 90 °C at a ramp rate of 2 °C/min. The ratio of the recorded emission intensities (350nm/330 nm) were plotted as a function of temperature. This ratio and first derivatives were calculated using the NanoTemper software and were plotted using GraphPad Prism.

GPX4 = molecular target: T3, GPX4 (Homo sapiens, UniProt P36969); experiment: GR-coupled GPX4 activity assay (NADPH fluorescence, CHP substrate); type: biochemical; conditions: Fig. 9 pan-selenoprotein inhibitors
T3 construct: made in house; host or cells: E. coli
T3 sequence (P36969 1-170 isoform P36969-2): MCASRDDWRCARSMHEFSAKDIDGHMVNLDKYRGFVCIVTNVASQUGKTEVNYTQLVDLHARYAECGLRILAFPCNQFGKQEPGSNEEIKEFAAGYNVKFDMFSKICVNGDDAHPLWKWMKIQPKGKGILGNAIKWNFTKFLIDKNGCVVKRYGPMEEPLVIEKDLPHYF
Method: as §1, §2, §3, §4, §5, §6, §7

[3] = molecular target: T4, GR (glutathione reductase) (Homo sapiens, UniProt P00390); experiment: GR counter-assay; type: biochemical; conditions: Fig. 9 pan-selenoprotein inhibitors
T4 construct: made in house
T4 sequence (P00390 44-522): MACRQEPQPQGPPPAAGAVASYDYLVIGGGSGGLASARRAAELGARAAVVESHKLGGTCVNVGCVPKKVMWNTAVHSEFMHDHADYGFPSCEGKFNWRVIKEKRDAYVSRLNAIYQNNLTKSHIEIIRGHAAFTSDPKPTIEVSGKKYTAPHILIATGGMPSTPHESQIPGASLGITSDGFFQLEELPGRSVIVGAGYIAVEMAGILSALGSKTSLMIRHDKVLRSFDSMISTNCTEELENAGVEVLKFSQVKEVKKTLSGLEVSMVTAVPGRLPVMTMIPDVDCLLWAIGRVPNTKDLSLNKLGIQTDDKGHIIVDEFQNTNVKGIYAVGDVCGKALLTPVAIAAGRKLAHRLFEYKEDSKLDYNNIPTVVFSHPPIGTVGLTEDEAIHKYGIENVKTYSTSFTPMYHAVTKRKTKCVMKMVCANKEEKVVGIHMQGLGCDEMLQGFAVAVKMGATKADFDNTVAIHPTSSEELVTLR
Method: as §1, §2
To identify false positive compounds that interfere with the primary assay through inhibition of GR, ‘hits’ from the primary screening were run against a GR counter assay to identify this possible off-target inhibition (Fig. 1C). Briefly, 3 μL enzyme mixture (100 nM GR, 0.01% BSA in TES buffer) was dispensed into columns […] of a 1536-well black medium-binding solid-bottom plates. The no-enzyme control (0.01% BSA in TES buffer) was included in column 1 and 2. Compounds and controls (23 nL) were added to each well with a pin tool (Kalypsys), and the plates were incubated for 30 min before 2 μL of substrate mixture (1 mM GSSG 0.4 mM NADPH in TES buffer) was added to each well and absorbance at 340 nm was measured at t = 0 and t = 20 min using a ViewLux Multimodal detector (PerkinElmer).
as §6, §7

human TXNRD1 = molecular target: T5, human TXNRD1 (Homo sapiens, UniProt Q16881); experiment: Thioredoxin reductase 1 (TXNRD1) inhibition assay (selenite reduction); type: biochemical; conditions: Fig. 9 pan-selenoprotein inhibitors
T5 construct: made in house
T5 sequence (Q16881 1-499 isoform Q16881-5): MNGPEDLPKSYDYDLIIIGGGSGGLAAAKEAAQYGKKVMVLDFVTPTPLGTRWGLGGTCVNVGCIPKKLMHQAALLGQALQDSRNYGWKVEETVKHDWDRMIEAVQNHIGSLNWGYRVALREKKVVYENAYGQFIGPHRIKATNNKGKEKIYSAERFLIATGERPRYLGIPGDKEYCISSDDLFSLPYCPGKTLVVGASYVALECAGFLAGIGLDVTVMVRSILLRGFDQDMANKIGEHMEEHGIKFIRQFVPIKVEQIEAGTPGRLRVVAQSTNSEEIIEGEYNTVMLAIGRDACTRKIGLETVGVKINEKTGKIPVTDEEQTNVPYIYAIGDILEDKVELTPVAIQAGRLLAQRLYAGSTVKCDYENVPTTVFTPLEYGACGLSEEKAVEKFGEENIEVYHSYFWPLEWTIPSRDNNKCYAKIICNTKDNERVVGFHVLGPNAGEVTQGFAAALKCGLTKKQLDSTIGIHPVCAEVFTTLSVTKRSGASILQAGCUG
Method: as §1, §2
TXNRD1 activity was assessed using a modified 1536-well TXNRD1 inhibition assay, based upon TXNRD1-catalyzed selenite reduction as previously described (Fig. 1D). […] TE buffer was dispensed into column 1 and 2 as a no-enzyme control. Finally, 1 μL of sodium selenite in TE buffer was dispensed into each well for final concentrations of 90 nM hTXNRD1, 0.4 mM NADPH, and 0.4 mM sodium selenite. The plate was read in a Viewlux multimodal detector in kinetic mode and fluorescence at 340 nm/450 nm was measured every minute for 8 min.
as §6, §7

[4] = 100 μM small molecule vs DMSO control

## CO[C@@]1(NC(=O)Cc2cccs2)C(=O)N2C(C(=O)O)=C(COC(N)=O)CS[C@@H]21 [Cefoxitin sodium salt]
GPX1 [1]
  IC50: 9.3 µM
Human GPX2
  IC50: > 20 µM
GPX1 [2]; [4]
  GSH Binding (ΔTm) GPx1; shift in nanoDSF melting temperature: +0.4 °C
GPX1 [2]; 100 μM, DMSO control Tm 42.5°C
  Tm GPX1 (nanoDSF): 42.9 °C
GPX1 [2]
  thermal stabilization of GPX1: did not show any thermal stabilization

## Nc1nc(/C(=C/CC(=O)O)C(=O)N[C@@H]2C(=O)N3C(C(=O)O)=CCS[C@H]23)cs1 [Ceftibuten]
GPX1 [1]
  IC50: 18.5 µM
Human GPX2
  IC50: 10 µM
GPX1 [2]; [4]
  GSH Binding (ΔTm) GPx1; shift in nanoDSF melting temperature: -0.2 °C
GPX1 [2]; 100 μM, DMSO control Tm 42.5°C
  Tm GPX1 (nanoDSF): 42.3 °C
GPX1 [2]
  thermal stabilization of GPX1: did not show any thermal stabilization

## O=C(N[C@H]1CCS[C@H]2CCC[C@@H](C(=O)O)N2C1=O)[C@@H](S)Cc1ccccc1 [Omapatrilat]
GPX1 [1]
  IC50: 5.7 µM
Human GPX2
  IC50: 4.7 µM
GPX1 [2]; [4]
  GSH Binding (ΔTm) GPx1; shift in nanoDSF melting temperature: +6.3 °C
GPX1 [2]; 100 μM small molecule vs DMSO control, second inflection point
  GSH Binding (ΔTm) GPx1; shift in nanoDSF melting temperature, second inflection point: +12.8 °C
GPX1 [2]; 100 μM, DMSO control Tm 42.5°C
  Tm GPX1 (nanoDSF), second inflection point: 55.3 °C
  Tm GPX1 (nanoDSF): 48.8 °C
GPX1 [2]
  thermal stabilization of GPX1: significant shifts in the melting temperature of GPX1

## Cc1ccc(NC(=O)N2CCN(c3nc(N)nc4sc(-c5cccnc5)nc34)CC2)cc1 [PI4KIII beta inhibitor 3]
GPX1 [1]
  inhibition of GPX1: inhibited all tested selenoproteins
GPX4
  inhibition of GPX4: inhibited all tested selenoproteins
Human GPX2
  inhibition of GPX2: inhibited all tested selenoproteins
[3]
  inhibition of GR: not GR
Human TXNRD1
  inhibition of TXNRD1: inhibited all tested selenoproteins

## CC(OC(=O)OC1CCCCC1)OC(=O)C1=C(CSc2nnnn2CCN(C)C)CS[C@@H]2[C@H](NC(=O)Cc3csc(N)n3)C(=O)N12 (stereo partly shown) [SCE-2174]
GPX1 [1]
  inhibition of GPX1: inhibited all tested selenoproteins
GPX4
  inhibition of GPX4: inhibited all tested selenoproteins
Human GPX2
  inhibition of GPX2: inhibited all tested selenoproteins
[3]
  inhibition of GR: not GR
Human TXNRD1
  inhibition of TXNRD1: inhibited all tested selenoproteins

## COc1ccc2[nH]c([S+]([O-])Cc3ncc(C)c(OC)c3C)nc2n1 (stereo not shown) [Tenatoprazole]
GPX1 [1]
  IC50: 8.9 µM
Human GPX2
  IC50: 7.7 µM
GPX1 [2]; [4]
  GSH Binding (ΔTm) GPx1; shift in nanoDSF melting temperature: +7.5 °C
GPX1 [2]; 100 μM, DMSO control Tm 42.5°C
  Tm GPX1 (nanoDSF): 50.0 °C
GPX1 [2]
  thermal stabilization of GPX1: significant shifts in the melting temperature of GPX1

## CO[C@@]1(NC(=O)C2SC(=C(C(N)=O)C(=O)O)S2)C(=O)N2C(C(=O)O)=C(CSc3nnnn3C)CS[C@@H]21 (stereo partly shown) [cefotetan sodium]
GPX1 [1]
  inhibition of GPX1: inhibited all tested selenoproteins
GPX4
  inhibition of GPX4: inhibited all tested selenoproteins
Human GPX2
  inhibition of GPX2: inhibited all tested selenoproteins
[3]
  inhibition of GR: not GR
Human TXNRD1
  inhibition of TXNRD1: inhibited all tested selenoproteins
